pIC50: −log10 of the molar value.
Legend:
endothelial cells = conditions: from Mendel et al. 2000 (SU5416) and Laird et al. 2000 (SU6668); read-out: predetermined IC50 concentration; cited from earlier work
HUVEC [1] = assay: Annexin V staining test for endothelial cells undergoing apoptosis (Annexin V-FITC/PI flow cytometry); format: cell-based, human; conditions: HUVEC on collagen I, 0.0011 μM mM docetaxel, FIG. 6
Source text: Altered cell attachment and loss of membrane integrity are among the earliest morphological features of programmed cell death. Annexin V, a 35-36 kDa Ca^2+-dependent phospholipid-binding protein, has a high affinity for the membrane phospholipid phosphatidylserine, normally located on the inner leaflet of the cell membrane (Raynal et al., 1994, Biochem. et Biophys. Acta. 1197:63-93). In cells undergoing apoptosis, however, phosphatidylserine is translocated to the outer leaflet of the plasma membrane and can be detected by Annexin V labeled with fluorescent dyes, such as FITC. To distinguish truly apoptotic cells from necrotic cells, Annexin V was used in combination with PI exclusion. In this assay, HUVEC undergoing apoptosis are Annexin V-positive, PI negative, while necrotic cells are Annexin V-positive, PI-positive.
As an example, HUVEC cells were cultured on collagen I and treated with 0.0011 μM mM docetaxel and then stained with both Annexin V and PI. Annexin V binding and PI staining of nuclei were documented for the same cell population using the PharMingen Annexin V flow cytometry assay and two-color immunofluorescence on live HUVEC monolayers. Staining with Annexin V-FITC was visible on the membrane as green fluorescence, and PI staining was visible in the nucleus as red fluorescence. […] In a separate experiment, HUVEC cells were transferred into Ultra Low Attachment 24-well plates (Corning, Inc., Corning N.Y.) covered with a layer of hydrogel that is hydrophilic and neutrally charged. The hydrogel surface inhibits non-specific immobilization, and therefore subsequent cell attachment, because proteins and other biomolecules passively adsorb to surfaces through hydrophobic and ionic interactions. Because of the lack of appropriate ECM providing anti-apoptotic signals, HUVEC undergo rapid apoptosis under these culture conditions. For example, 24 hours after their transfer into Ultra Low Attachment plates, 61% of HUVEC cells were undergoing an (Annexin V-positive, PI-negative) apoptotic process (shown in FIG. 7).

HUVEC [2] = assay: APO-DIRECT assay (late apoptosis, DNA breaks); format: cell-based, human; conditions: collagen I, 1 μM docetaxel, 48 hours, FIG. 8
Source text: The APO-DIRECT assay (Phoenix Flow Systems, San Diego, Calif.) utilizes single step fluorescent labeling and flow cytometric analysis by taking advantage of the multitude of 3′-hydroxyl termini of DNA present in apoptotic cells. One of the hallmarks of cellular self-destruction by apoptosis is the activation of nucleases that degrade the higher order chromatin structure of the DNA into fragments of 50 to 300 kilobases. These DNA fragments result in the appearance of “DNA laddering” when the DNA is analyzed by agarose gel electrophoresis. (Arends et al., 1990, Am. J. Pathol. 136:593-608). Apoptotic cells were identified by labeling the 3′-hydroxy ends of double- and single-stranded DNA breaks with fluorescent-tagged deoxyuridine triphosphate nucleotides (F-dUTP) using the enzyme deoxynucleotidyl transferase (TdT). […] The APO-DIRECT assay identified cells undergoing apoptosis at a later stage of programmed cell death than assays based on Annexin V binding.
In these experiments, HUVEC were incubated on collagen I for 48 hours in the presence of 1 μM docetaxel. The cells were fixed in paraformaldehyde and stored at −20° C. until use. […] The gating display was created according to Phoenix Flow protocol using Linear Red Fluorescence (DNA) on the X-axis and Log green Fluorescence (d-UTP) on the Y-axis. […]

HUVEC [3] = assay: HUVEC morphology by phase contrast microscopy; format: cell-based, human; conditions: HUVEC on collagen I, 48 hours; 10 μM or 1 μM docetaxel, 10 μM thalidomide, FIG. 11
Protocol: (§1) HUVEC were cultured for 48 hours on collagen I and treated with either 10 μM docetaxel, 1 μM docetaxel, or 10 μM thalidomide. The effect on cell morphology was observed by phase contrast microscopy. In addition, apoptotic HUVEC cultured on collagen in the presence of 10 μM docetaxel were stained with AnnexinV-FITC (green fluorescence) and PI (red fluorescence) and visualized with immunofluorescent photomicrography. […] An atypical pattern of Dil-ac-LDL accumulation in drug-treated cells was observed under high magnification.

HUVEC [4] = assay: Dil-ac-LDL uptake by HUVEC; format: cell-based, human; conditions: HUVEC on collagen I, 48 hours, 10 μM docetaxel, FIG. 12
Source text: The uptake of Dil-ac-LDL (Biomedical Technologies, Inc., Stoughton Mass.) was utilized to identify and characterize differentiated VEC using fluorescent microscopy on live cell monolayers. After uptake, Dil-ac-LDL is degraded by lysosomal enzymes in endothelial cells, with the Dil fluorescent probe accumulating in the intracellular membrane. (Pitas et al., 1985, J. Cell. Biol. 100:103-117). Discrimination using this system is high, because no other cell type, with the exception of macrophages, is labeled to the same degree as VEC (Voura et al, 1998, Microsc. Res. Tech. 43: 265-275; Pitas et al., 1985, J. Cell Biol. 100:103-117), and macrophages can be excluded from the analysis and sorting protocols with CD45 staining. In addition, macrophages can be differentiated from VEC because the […] is more brightly labeled with Dil-ac-LDL.
as §1

HUVEC [5] = assay: HUVEC tubulogenesis on MATRIGEL; format: cell-based, human; conditions: three hours after cell transfer
Source text: Functional tests were also used to characterize the differentiation status of VEC cultured in different growth environments in vitro, as previously described. (Hewett et al., 1993, In Vitro Cell Dev. Biol. 29A: 823-830; Benelli et al., 1999, Int. J. Biol Markers 14: 243-246). MATRIGEL, a three-dimensional support matrix that is composed of solubilized membranes extracted from Engelbreth-Holm-Swarm (“EHS”) mouse sarcoma cells, was used because of the ability of mammalian VEC derived from different tissue sources to form capillary-like tubules and generate branched and forked networks in this media. The major components of this matrix are ECM proteins, such as laminin, collagen IV, entactin, and heparan sulphate proteoglycan, as well as growth factors, such as bFGF and EGF. MATRIGEL has previously been used to induce and maintain differentiation of endothelial, muscle, and neuronal cells, and for the development of three-dimensional matrix and cell invasion systems in vitro. (Gargett et al., 2000, Hum. Reprod. 15:293-301; Voura et al., 1998, Microsc. Res. Tech. 43: 265-275).
VEC were cultured both on BIOCOAT MATRIGEL matrix-coated tissue culture flasks (Becton Dickinson), and on MATRIGEL matrix prepared from pre-frozen gels that were thawed, kept at +4° C. before use and solidified at +37° C. for 3-16 hours before testing. The optimal time to detect the formation of tubules and capillary-like networks on MATRIGEL was from 3-6 hours. (Gargett et al., 2000, Hum. Reprod. 15:293-301; Voura et al., 1998, Microsc. Res. Tech. 43: 265-275). […] No viable VEC were found in MATRIGEL cultures after 48 hours.

[6] = test system: VEC derived from fresh tumor specimens; assay: Microarray analysis of drug-resistant versus drug-sensitive tumor-derived VEC sorted by Annexin V; format: cell-based, human; conditions: 0.1 μM docetaxel, 24 hours
Protocol: Anti-angiogenesis agents were screened using highly purified populations of endothelial cells derived from fresh tumor specimens. 2×10^7 VEC that were sorted for the expression of CD31 and CD105 endothelial markers were exposed to 0.1 μM docetaxel or 50 μM BSO, a proprietary drug. […] After 24 hours of drug exposure in cytophobic plates, VEC were sorted under sterile conditions using the above Annexin V-flow cytometry protocol. To ensure the purity of sorted VEC, the sorted populations were reanalyzed by flow cytometry for Annexin V and PI staining, as shown in FIG. 17. The purity of the sorted VEC populations varied between 97.3% and 99.1%. Total RNA was isolated from both resistant (Annexin V−/PI−) and sensitive (Annexin V+/PI−) populations, and cDNA probes were hybridized with Research Genetics GeneFilters© microarrays containing over 40,000 known human gene sequences. In order to compare the microarray results for the drug-resistant sample to the drug-sensitive sample, FIG. 18 is a two-dimensional scatter plot constructed of intensity values from the microarrays normalized by converting to the fraction of total intensity and then log transformed, which was used to compare the microarray results for the resistant and sensitive sample. Diagonal lines were utilized that separated the genes that have more than a 2-fold difference in expression level.

[7] = RESISTANT, resistant versus sensitive VEC
[8] = SENSITIVE, resistant versus sensitive VEC

In the case of `Cc1cc(C)c(/C=C2\C(=O)Nc3ccccc32)[nH]1` [SU5416], the pIC50 (endothelial cells) is listed as 6.00.

In the case of `Cc1[nH]c(/C=C2\C(=O)Nc3ccccc32)c(C)c1CCC(=O)O` [SU6668], the pIC50 (endothelial cells) is given as 6.47.

With `CC(=O)O[C@@]12CO[C@@H]1C[C@H](O)[C@@]1(C)C(=O)[C@H](O)C3=C(C)[C@@H](OC(=O)[C@H](O)[C@@H](NC(=O)OC(C)(C)C)c4ccccc4)C[C@@](O)([C@@H](OC(=O)c4ccccc4)[C@H]21)C3(C)C` [docetaxel] the “cells dead due to either apoptosis or necrosis” value (HUVEC [1]) was 16%, the “cells intact (Annexin V-negative, PI-negative)” value (HUVEC [1]) was 80% and the cells undergoing apoptosis (HUVEC [1]) was 3.5%. For the same molecule, the “HUVEC that had undergone apoptosis” value (HUVEC [2]) was 73%, the “effect on cell morphology” value (HUVEC [3]) was “rounded and partially detached HUVEC” and the Dil-ac-LDL uptake (HUVEC [4]) was “very few docetaxel-treated HUVEC took up DIL-as-LDL”. For the same molecule, the “tubulogenesis on MATRIGEL” value (HUVEC [5]; 10 μM, FIG. 13) was “complete absence of VEC-like tubules”, the “tubulogenesis and capillary-like network formation on MATRIGEL” value (HUVEC [5]; lower doses (1, 0.1, 0.01, 0.001 μM)) was “inhibited tubulogenesis and capillary-like network formation” and the “Ratio, Human HLK1 mRNA, complete cds” value [6, 7] was 3.6. For the same molecule, the “Ratio, Interferon regulatory factor 5” value [6, 7] was 4.4, the “Ratio, Keratin, type I cytoskeletal 14” value [6, 7] was 4 and the “Ratio, Small proline-rich protein 1B (cornifin)” value [6, 7] was 3.6. The “Ratio, Tuberin” value [6, 7] was 3.2, the “Ratio, Fibrinogen beta-chain precursor” value ([6]; SENSITIVE) was 4.9 and the “Ratio, Human TWIK-related acid-sensitive K + channel gene” value ([6]; SENSITIVE) was 5.9. The “Ratio, Human metallothionein (MT)I-F gene” value [6, 8] was 6.2, the “Ratio, Human mucosal addressin cell adhesion molecule” value [6, 8] was 9.5 and the “Ratio, Human putative fatty acid desaturase” value [6, 8] was 5.2.

For `O=C1CCC(N2C(=O)c3ccccc3C2=O)C(=O)N1` (stereo not shown) [thalidomide], the “effect on cell morphology” value (HUVEC [3]) was “no effect on HUVEC morphology” and the “effects on HUVEC tubulogenesis on MATRIGEL” value (HUVEC [5]; 10, 1, 0.1, 0.01 and 0.001 μM) was “No effects”.

Source: US6998234B2, “Methods for cancer prognosis and diagnosis relating to tumor vascular endothelial cells” (Oncotech, Inc., priority 2000, dated 2006)
